Here are results for 26 compounds from ChEMBL document CHEMBL2390867, “Design, synthesis and evaluation of novel tacrine-coumarin hybrids as multifunctional cholinesterase inhibitors against Alzheimer's disease” (Eur J Med Chem, 2013).

Activity calls are given as the source filed them. The rule behind the calls is not given here.

One data set deals with Cholinesterase (Equus caballus, UniProt P81908).
Data set [1] deals with T1, Acetylcholinesterase (Electrophorus electricus, UniProt O42275).
Description: Inhibition of electric eel AChE using acetylthiocholine iodide as substrate preincubated for 6 mins prior to substrate addition measured at 60 to 180 seconds by Ellman's method
Data set [2] has as its target Amyloid-beta precursor protein (Homo sapiens) (UniProt P05067). The settings on record: at 20 µM.
Data set [3] in a line: Metal chelating activity assessed as compound-Cu2+ complex formation at 25 uM by UV-vis spectrophotometric analysis. Format: functional.
Data set [4] is described as follows: Metal chelating activity assessed as compound-Fe2+ complex formation at 25 uM by UV-vis spectrophotometric analysis. Type of data set: functional.
Data set [5] in a line: Neurotoxicity in human SH-SY5Y cells at 5 uM after 24 hrs by MTT assay relative to control. The settings on record: read-out: Activity. Format: toxicity, cell-based. (In general: Tetrazolium dyes change colour on reduction, which living cells bring about.)
Data set [6] is described as follows: Neurotoxicity in human SH-SY5Y cells at 25 uM after 24 hrs by MTT assay relative to control. Type of data set: toxicity, cell-based.
The nature of data set [7]: Neurotoxicity in human SH-SY5Y cells at 10 uM after 24 hrs by MTT assay relative to control. Type of data set: toxicity, cell-based.
The nature of data set [8]: Neurotoxicity in human SH-SY5Y cells at 1 uM after 24 hrs by MTT assay relative to control. Format: toxicity, cell-based.
The nature of data set [9]: Neurotoxicity in human SH-SY5Y cells at 50 uM after 24 hrs by MTT assay relative to control. Format: toxicity, cell-based.
The target of data set [10] is T1, Acetylcholinesterase. In words: Competitive inhibition of electric eel AChE using acetylthiocholine as substrate by Lineweaver-Burk plot analysis.

Sequence of Cholinesterase (P81908 whole entry): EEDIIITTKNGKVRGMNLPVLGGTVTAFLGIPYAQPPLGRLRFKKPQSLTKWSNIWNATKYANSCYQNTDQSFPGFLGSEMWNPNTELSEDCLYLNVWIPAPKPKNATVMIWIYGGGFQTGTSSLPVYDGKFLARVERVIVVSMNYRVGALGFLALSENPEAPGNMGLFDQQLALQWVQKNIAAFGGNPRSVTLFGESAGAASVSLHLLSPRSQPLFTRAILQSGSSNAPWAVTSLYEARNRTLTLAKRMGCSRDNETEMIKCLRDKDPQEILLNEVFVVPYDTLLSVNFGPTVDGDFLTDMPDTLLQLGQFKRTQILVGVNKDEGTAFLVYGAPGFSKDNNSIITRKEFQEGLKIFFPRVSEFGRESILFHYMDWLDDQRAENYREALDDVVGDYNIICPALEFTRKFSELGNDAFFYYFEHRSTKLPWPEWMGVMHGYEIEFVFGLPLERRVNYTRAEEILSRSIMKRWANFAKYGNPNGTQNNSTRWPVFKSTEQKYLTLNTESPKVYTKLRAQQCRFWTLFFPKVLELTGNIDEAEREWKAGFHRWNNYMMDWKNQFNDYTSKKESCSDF
T1 sequence (O42275 whole entry): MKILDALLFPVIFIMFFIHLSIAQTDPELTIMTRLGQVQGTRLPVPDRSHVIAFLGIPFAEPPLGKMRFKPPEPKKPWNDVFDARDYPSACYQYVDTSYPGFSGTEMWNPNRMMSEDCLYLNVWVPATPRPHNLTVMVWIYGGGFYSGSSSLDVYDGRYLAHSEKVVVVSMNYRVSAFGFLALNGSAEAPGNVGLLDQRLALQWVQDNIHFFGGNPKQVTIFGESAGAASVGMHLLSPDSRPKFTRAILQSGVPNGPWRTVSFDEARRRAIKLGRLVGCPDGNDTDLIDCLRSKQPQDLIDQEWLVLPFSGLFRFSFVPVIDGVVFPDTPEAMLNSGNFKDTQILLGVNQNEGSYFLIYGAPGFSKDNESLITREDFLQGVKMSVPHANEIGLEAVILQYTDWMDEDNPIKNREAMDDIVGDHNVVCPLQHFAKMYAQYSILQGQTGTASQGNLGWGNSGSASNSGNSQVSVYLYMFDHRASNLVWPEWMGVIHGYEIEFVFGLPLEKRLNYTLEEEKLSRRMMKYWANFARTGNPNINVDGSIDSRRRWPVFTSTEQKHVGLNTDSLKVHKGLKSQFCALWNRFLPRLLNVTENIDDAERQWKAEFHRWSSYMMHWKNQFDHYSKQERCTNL
Sequence of Amyloid-beta precursor protein (Homo sapiens) (P05067 whole entry): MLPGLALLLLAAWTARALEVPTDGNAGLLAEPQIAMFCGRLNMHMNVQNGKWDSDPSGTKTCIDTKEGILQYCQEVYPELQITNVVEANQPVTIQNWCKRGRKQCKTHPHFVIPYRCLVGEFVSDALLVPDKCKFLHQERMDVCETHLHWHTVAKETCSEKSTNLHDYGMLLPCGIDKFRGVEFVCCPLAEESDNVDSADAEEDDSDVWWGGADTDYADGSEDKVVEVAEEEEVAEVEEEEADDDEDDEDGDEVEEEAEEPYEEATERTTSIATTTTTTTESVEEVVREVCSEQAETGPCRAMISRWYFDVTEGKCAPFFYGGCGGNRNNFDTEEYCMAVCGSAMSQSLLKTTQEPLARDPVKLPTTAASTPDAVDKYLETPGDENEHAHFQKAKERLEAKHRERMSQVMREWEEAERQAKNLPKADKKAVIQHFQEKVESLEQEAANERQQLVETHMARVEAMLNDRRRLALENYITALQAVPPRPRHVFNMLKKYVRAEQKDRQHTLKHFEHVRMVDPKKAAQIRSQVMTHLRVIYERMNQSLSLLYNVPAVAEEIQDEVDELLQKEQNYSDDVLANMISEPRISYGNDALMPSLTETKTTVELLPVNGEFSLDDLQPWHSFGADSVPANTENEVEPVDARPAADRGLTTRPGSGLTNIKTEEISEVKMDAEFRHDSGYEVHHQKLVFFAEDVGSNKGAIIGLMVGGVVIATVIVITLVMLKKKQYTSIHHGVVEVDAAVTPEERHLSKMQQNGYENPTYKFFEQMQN

A word on the IC50: it is the concentration needed to halve the response being measured. A lower IC50 goes with greater potency in that assay. The inhibition is the percentage by which the read-out fell short of the control. High values mean strong suppression, low ones little suppression. `Cc1cc(=O)oc2cc(OCCCCCN3CCN(CC(=O)Nc4c5c(nc6ccccc46)CCCC5)CC3)ccc12`: the IC50 was determined as 164 nM on Cholinesterase and 333 nM against Acetylcholinesterase [1]. For the same compound, the inhibition in data set [2] amounted to 59.8%.

Turning to `O=c1cc(-c2ccccc2)c2ccc(O)cc2o1`, the results for the IC50 against Cholinesterase and against Acetylcholinesterase [1] were more than 500000 nM and 258000 nM, respectively. Besides, the inhibition in data set [2] was 27.1%.

Turning to `O=C(CN1CCNCC1)Nc1c2c(nc3ccccc13)CCCC2`, the IC50 on Cholinesterase worked out at 22000 nM; against Acetylcholinesterase [1], 145000 nM. In [2], this compound displayed an inhibition of 30.3%.

Turning to `O=C(CN1CCN(CCCCCCOc2ccc3ccc(=O)oc3c2)CC1)Nc1c2c(nc3ccccc13)CCCC2`, the results for the IC50 at Cholinesterase and on Acetylcholinesterase [1] were 210 nM and 646 nM, respectively. In data set [2], this compound came in with an inhibition of 57.1%.

In [2], `COc1cc(/C=C/C(=O)CC(=O)/C=C/c2ccc(O)c(OC)c2)ccc1O` displayed an inhibition of 42.4%.

Take `COc1cc(=O)oc2cc(O)ccc12`: the concentration for half-maximal inhibition (IC50) was more than 500000 nM against Cholinesterase and 208000 nM on Acetylcholinesterase [1]. In [2], this compound gave an inhibition of 22.4%.

As to `O=C(CN1CCN(CCCOc2ccc3c(-c4ccccc4)cc(=O)oc3c2)CC1)Nc1c2c(nc3ccccc13)CCCC2`, the IC50 on Cholinesterase is 3160 nM; at Acetylcholinesterase [1], 887 nM. In addition, the inhibition in data set [2] was determined as 28.2%.

As for `O=C(CN1CCN(CCCCOc2ccc3ccc(=O)oc3c2)CC1)Nc1c2c(nc3ccccc13)CCCC2`, the values for the IC50 against Cholinesterase and against Acetylcholinesterase [1] were 309 nM and 169 nM, respectively. In data set [2], this compound registered an inhibition of 57%.

Turning to `O=C(CN1CCN(CCCCCOc2ccc3ccc(=O)oc3c2)CC1)Nc1c2c(nc3ccccc13)CCCC2`, the figures for the IC50 against Cholinesterase and on Acetylcholinesterase [1] were 215 nM and 310 nM, respectively. Also, the inhibition in [2] came to 52.7%.

In the case of `O=C(CN1CCN(CCOc2ccc3c(-c4ccccc4)cc(=O)oc3c2)CC1)Nc1c2c(nc3ccccc13)CCCC2`, the IC50 at Cholinesterase was determined as 1510 nM; against Acetylcholinesterase [1], 373 nM. Moreover, the inhibition in [2] was determined as 27.2%.

Turning to `Cc1cc(=O)oc2cc(O)ccc12` [HYMECROMONE], the IC50 was more than 500000 nM at Cholinesterase and 167000 nM against Acetylcholinesterase [1]. In [2], this compound returned an inhibition of 21.5%.

Consider `COc1cc(=O)oc2cc(OCCCCCCN3CCN(CC(=O)Nc4c5c(nc6ccccc46)CCCC5)CC3)ccc12`, for which the IC50 on Cholinesterase turned out to be 1780 nM; against Acetylcholinesterase [1], 993 nM. In addition, the inhibition in [2] stood at 31.9%.

In the case of `Cc1cc(=O)oc2cc(OCCCN3CCN(CC(=O)Nc4c5c(nc6ccccc46)CCCC5)CC3)ccc12`, the half-maximal inhibitory concentration (IC50) against Cholinesterase was 628 nM; at Acetylcholinesterase [1], 130 nM. In addition, the inhibition in data set [2] amounted to 67.5%.

As for `COc1cc(=O)oc2cc(OCCCCCN3CCN(CC(=O)Nc4c5c(nc6ccccc46)CCCC5)CC3)ccc12`, the IC50 on Cholinesterase is 730 nM; on Acetylcholinesterase [1] it was 357 nM. The compound also displayed an inhibition in [2] of 30%.

In data set [2], `O=c1ccc2ccc(O)cc2o1` yielded an inhibition of 30.5%.

With `O=C(CN1CCN(CCCCOc2ccc3c(-c4ccccc4)cc(=O)oc3c2)CC1)Nc1c2c(nc3ccccc13)CCCC2`, the IC50 on Cholinesterase was 1820 nM; against Acetylcholinesterase [1], 1110 nM. The same compound came in with an inhibition in [2] of 28.6%.

In the case of `COc1cc(=O)oc2cc(OCCCN3CCN(CC(=O)Nc4c5c(nc6ccccc46)CCCC5)CC3)ccc12`, the values for the IC50 on Cholinesterase and on Acetylcholinesterase [1] were 1830 nM and 166 nM, respectively. In data set [2], this compound gave an inhibition of 34.9%.

For `Cc1cc(=O)oc2cc(OCCCCCCN3CCN(CC(=O)Nc4c5c(nc6ccccc46)CCCC5)CC3)ccc12`, the IC50 stood at 99 nM at Cholinesterase and 398 nM against Acetylcholinesterase [1]. The same compound displayed an inhibition in [2] of 57.6%.

Regarding `O=C(CN1CCN(CCOc2ccc3ccc(=O)oc3c2)CC1)Nc1c2c(nc3ccccc13)CCCC2`, the IC50 at Cholinesterase amounted to 493 nM; against Acetylcholinesterase [1], 150 nM. Further, the inhibition in [2] worked out at 59%.

Consider `COc1cc(=O)oc2cc(OCCN3CCN(CC(=O)Nc4c5c(nc6ccccc46)CCCC5)CC3)ccc12`, for which the IC50 is 5140 nM on Cholinesterase and 150 nM against Acetylcholinesterase [1]. The same compound gave an inhibition in data set [2] of 21.6%.

For `O=C(CN1CCN(CCCOc2ccc3ccc(=O)oc3c2)CC1)Nc1c2c(nc3ccccc13)CCCC2`, the IC50 at Cholinesterase worked out at 440 nM; against Acetylcholinesterase [1] it was 133 nM. The compound further yielded an inhibition in [2] of 55.1%.

`Cc1cc(=O)oc2cc(OCCCCN3CCN(CC(=O)Nc4c5c(nc6ccccc46)CCCC5)CC3)ccc12`: the IC50 came out at 147 nM against Cholinesterase and 187 nM on Acetylcholinesterase [1]. The inhibition in [2] worked out at 52.7%.

In the case of `O=C(CN1CCN(CCCCCOc2ccc3c(-c4ccccc4)cc(=O)oc3c2)CC1)Nc1c2c(nc3ccccc13)CCCC2`, the IC50 came to 1270 nM against Cholinesterase and 1580 nM at Acetylcholinesterase [1]. Moreover, in [2], the inhibition turned out to be 29.5%.

Broadly, the Ki is the dissociation constant of the complex between target and ligand, obtained from inhibition or displacement. Lower therefore signals tighter binding. With `Cc1cc(=O)oc2cc(OCCN3CCN(CC(=O)Nc4c5c(nc6ccccc46)CCCC5)CC3)ccc12`, the outcome in [3] and in data set [4] was Active. Further, the half-maximal inhibitory concentration (IC50) on Cholinesterase came to 234 nM; against Acetylcholinesterase [1], 92 nM. Moreover, in data set [5], the viability at 24 h, 5 µM worked out at 94.7%. Besides, the Activity in data set [6] is reported as 93.6%; in [7] it was 104.3%; in [8] it was 96.6%; in [9] it was 91.5%. On Acetylcholinesterase [10], this compound registered a Ki of 81 nM.

As for `O=C(CN1CCN(CCCCCCOc2ccc3c(-c4ccccc4)cc(=O)oc3c2)CC1)Nc1c2c(nc3ccccc13)CCCC2`, the values for the IC50 at Cholinesterase and on Acetylcholinesterase [1] were 4510 nM and 2360 nM, respectively. This compound also came in with an inhibition in data set [2] of 27.5%.

As to `COc1cc(=O)oc2cc(OCCCCN3CCN(CC(=O)Nc4c5c(nc6ccccc46)CCCC5)CC3)ccc12`, the IC50 against Cholinesterase was found to be 3630 nM; on Acetylcholinesterase [1], 237 nM. In addition, the inhibition in data set [2] worked out at 22.1%.
